Key:
[1] = solubility of carvedilol in aqueous media; format: physicochemical; conditions: about pH 1-2
[2] = resorption after peroral administration of rapid release carvedilol formulations; format: in vivo; conditions: e.g. the commercial formulation
Text: In the case of the peroral administration of rapid release carvedilol formulations, e.g. the commercial formulation, resorption quotas of up to 80% are achieved, with a considerable part of the resorbed carvedilol being very rapidly metabolized.

[3] = investigations into the gastrointestinal resorption of carvedilol; format: in vivo; conditions: passage through the gastrointestinal tract
[4] = dissolution of carvedilol in melted polyethylene glycol 6,000; format: physicochemical; conditions: polyethylene glycol 6,000 melted at about 70° C.
Protocol: Thus, carvedilol can be dissolved in polyethylene glycol 6,000 which is melted at about 70° C. In this manner there are obtained highly concentrated solutions of carvedilol (up to 500 mg/ml), with the carvedilol being present distributed as a molecular dispersion in the solution. Moreover, further additives, for example cellulose derivatives such as hydroxypropylmethylcelluloses or hydroxypropylcelluloses, can be admixed in order to control the release rate of the active substance. Further, the compositions in accordance with the invention can contain highly dispersed silicon dioxide as an anti-caking agent.

- solubility in the strongly acidic region [1]: very low solubility
- resorption quota [2]: up to 80%
- concentration of the carvedilol solution (molecular dispersion) [4]: up to 500 mg/ml
SMILES: COc1ccccc1OCCNCC(O)COc1cccc2[nH]c3ccccc3c12 (stereo not shown) [carvedilol, 1-(4-carbazolyloxy)-3-[2-(2-methoxyphenoxy)ethyl-amino]-2-propanol]
- resorption in the ileum and colon relative to the stomach [3]: only a fraction of the resorption in the stomach

— patent publication US20050271721A1, “Carvedilol-hydrophilic solutions” (priority 2000, published 2005)
